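Cells were grown in 96-well plates and exposed to each compound for 48 hours at five concentrations; endpoints were interpolated linearly between bracketing concentrations, or set to the highest concentration if not reached. At the GI50, growth is halved.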 Activity calls are given as the source filed them. Rule as the data show it: active = GI50 up to about 1.1 µM and inactive = higher.
Tests used:
Test in all cases: inhibition of tumour cell growth, NCI panel, 48 h
[1] = tested on: 786-0
[2] = tested on: A498
[3] = tested on: A549
[4] = tested on: ACHN
[5] = tested on: CAKI-1
[6] = tested on: CCRF-CEM
[7] = tested on: COLO 205
[8] = tested on: DMS-114
[9] = tested on: DMS-273
[10] = tested on: EKVX
[11] = tested on: HCC 2998
[12] = tested on: HCT-116
[13] = tested on: HCT-15
[14] = tested on: HL-60
[15] = tested on: HOP-18
[16] = tested on: HOP-62
[17] = tested on: HOP-92
[18] = tested on: HT-29
[19] = tested on: IGROV-1
[20] = tested on: K562
[21] = tested on: KM-20L2
[22] = tested on: KM12
[23] = tested on: LOX IMVI
[24] = tested on: LXFL 529
[25] = tested on: M14
[26] = tested on: M19-MEL
[27] = tested on: MOLT-4
[28] = tested on: Malme-3M
[29] = tested on: NCI-H226
[30] = tested on: NCI-H23
[31] = tested on: NCI-H460
[32] = tested on: NCI-H522
[33] = tested on: OVCAR-3
[34] = tested on: OVCAR-4
[35] = tested on: OVCAR-5
[36] = tested on: OVCAR-8
[37] = tested on: RPMI-8226
[38] = tested on: RXF 393
[39] = tested on: RXF 631
[40] = tested on: SF-268
[41] = tested on: SF-295
[42] = tested on: SF-539
[43] = tested on: SK-MEL-28
[44] = tested on: SK-MEL-2
[45] = tested on: SK-MEL-5
[46] = tested on: SK-OV-3
[47] = tested on: SN12C
[48] = tested on: SNB-19
[49] = tested on: SNB-75
[50] = tested on: SNB-78
[51] = tested on: SR
[52] = tested on: SW-620
[53] = tested on: TK-10
[54] = tested on: U-251
[55] = tested on: UACC-257
[56] = tested on: UACC-62
[57] = tested on: UO-31
[58] = tested on: DLD-1

For `O=C(CCC(=O)Nc1ccc(Cl)c(Cl)c1)Cc1nc2ccccc2o1`, the GI50 [1] was > 100 µM (inactive), the GI50 [2] was > 100 µM (inactive) and the GI50 [3] was > 100 µM (inactive). The GI50 [4] was > 100 µM (inactive), the GI50 [5] was > 100 µM (inactive) and the GI50 [6] was > 100 µM (inactive). For the same compound, the GI50 [7] was > 100 µM (inactive), the GI50 [8] was > 100 µM (inactive) and the GI50 [9] was > 100 µM (inactive). The GI50 [10] was 67.3 µM (inactive), the GI50 [11] was > 100 µM (inactive) and the GI50 [12] was > 100 µM (inactive). For the same compound, the GI50 [13] was over 100 µM, the GI50 [14] was > 100 µM (inactive) and the GI50 [15] was > 100 µM (inactive). For the same compound, the GI50 [16] was > 100 µM (inactive), the GI50 [17] was > 100 µM (inactive) and the GI50 [18] was > 100 µM (inactive). The GI50 [19] was > 100 µM (inactive), the GI50 [20] was > 100 µM (inactive) and the GI50 [21] was > 100 µM (inactive). For the same compound, the GI50 [22] was > 100 µM (inactive), the GI50 [23] was > 100 µM (inactive) and the GI50 [24] was > 100 µM (inactive). The GI50 [25] was > 100 µM (inactive), the GI50 [26] was > 100 µM (inactive) and the GI50 [27] was > 100 µM (inactive). The GI50 [28] was > 100 µM (inactive), the GI50 [29] was > 100 µM (inactive) and the GI50 [30] was > 100 µM (inactive). For the same compound, the GI50 [31] was > 100 µM (inactive), the GI50 [32] was > 100 µM (inactive) and the GI50 [33] was 29.3 µM (inactive). The GI50 [34] was > 100 µM (inactive), the GI50 [35] was > 100 µM (inactive) and the GI50 [36] was > 100 µM (inactive). The GI50 [37] was > 100 µM (inactive), the GI50 [38] was > 100 µM (inactive) and the GI50 [39] was > 100 µM (inactive). For the same compound, the GI50 [40] was > 100 µM (inactive), the GI50 [41] was > 100 µM (inactive) and the GI50 [42] was > 100 µM (inactive). For the same compound, the GI50 [43] was > 100 µM (inactive), the GI50 [44] was > 100 µM (inactive) and the GI50 [45] was > 100 µM (inactive). For the same compound, the GI50 [46] was > 100 µM (inactive), the GI50 [47] was > 100 µM (inactive) and the GI50 [48] was > 100 µM (inactive). The GI50 [49] was > 100 µM (inactive), the GI50 [50] was > 100 µM (inactive) and the GI50 [51] was > 100 µM (inactive). For the same compound, the GI50 [52] was > 100 µM (inactive), the GI50 [53] was > 100 µM (inactive) and the GI50 [54] was > 100 µM (inactive). The GI50 [55] was > 100 µM (inactive), the GI50 [56] was > 100 µM (inactive) and the GI50 [57] was > 100 µM (inactive).

With `CCCCCCCCCCCCCc1nnn[nH]1` the GI50 [1] was 17.3 µM (inactive), the GI50 [2] was 17 µM (inactive) and the GI50 [3] was 20 µM (inactive). For the same compound, the GI50 [4] was 19.1 µM (inactive), the GI50 [6] was 18.8 µM (inactive) and the GI50 [7] was 19.4 µM (inactive). For the same compound, the GI50 [58] was 17.1 µM (inactive), the GI50 [8] was 18.5 µM (inactive) and the GI50 [10] was 23.4 µM (inactive). The GI50 [11] was 18.6 µM (inactive), the GI50 [12] was 17.9 µM (inactive) and the GI50 [13] was 18.3 µM. The GI50 [14] was 18.1 µM (inactive), the GI50 [15] was 15 µM (inactive) and the GI50 [16] was 18.2 µM (inactive). For the same compound, the GI50 [17] was 15.6 µM (inactive), the GI50 [18] was 18 µM (inactive) and the GI50 [19] was 21.2 µM (inactive). For the same compound, the GI50 [21] was 20.2 µM (inactive), the GI50 [22] was 18.3 µM (inactive) and the GI50 [23] was 18.4 µM (inactive). For the same compound, the GI50 [24] was 17.3 µM (inactive), the GI50 [25] was 17.5 µM (inactive) and the GI50 [26] was 19.7 µM (inactive). For the same compound, the GI50 [28] was 18.1 µM (inactive), the GI50 [29] was 22.2 µM (inactive) and the GI50 [30] was 24.4 µM (inactive). For the same compound, the GI50 [31] was 20.6 µM (inactive), the GI50 [32] was 21.8 µM (inactive) and the GI50 [33] was 18.3 µM (inactive). For the same compound, the GI50 [34] was 18.3 µM (inactive), the GI50 [35] was 18.5 µM (inactive) and the GI50 [36] was 29.9 µM (inactive). For the same compound, the GI50 [37] was 22.4 µM (inactive), the GI50 [38] was 27.5 µM (inactive) and the GI50 [39] was 15.4 µM (inactive). The GI50 [40] was 19.6 µM (inactive), the GI50 [41] was 19.2 µM (inactive) and the GI50 [42] was 18.2 µM (inactive). The GI50 [43] was 17.8 µM (inactive), the GI50 [44] was 18.2 µM (inactive) and the GI50 [45] was 17.7 µM (inactive). For the same compound, the GI50 [46] was 24.7 µM (inactive), the GI50 [47] was 18.8 µM (inactive) and the GI50 [48] was 18.7 µM (inactive). The GI50 [49] was 18.3 µM (inactive), the GI50 [50] was 21.4 µM (inactive) and the GI50 [52] was 20 µM (inactive). The GI50 [53] was 20.6 µM (inactive), the GI50 [54] was 18.2 µM (inactive) and the GI50 [55] was 18.7 µM (inactive). The GI50 [56] was 18 µM (inactive) and the GI50 [57] was 16 µM (inactive).

Source: ChEMBL document CHEMBL1201862, “PubChem BioAssay data set” (2004)
